# According to patent publication US9012512B2, “Aqueous extracts from monocotyledon plants and their use in cardioprotection” (priority 2008, dated 2015):
# How the values were obtained:
# Assay type in all cases: cell-based
# [1] = tested on: rat thoracic aorta; test: Combined vasorelaxing effects of TAA with GTN or SNP: phenylephrine-induced tension in rat thoracic aorta; settings: 0.1 μM agent alone; control vehicle 2.1 g
# Procedure: The rats were allowed to acclimate in environmentally controlled quarters (20-22° C. with 12:12 hr light-dark cycles). […] After equilibration, the aortic rings were stabilized with a near maximal contraction induced by 0.3 μM phenylephrine. When the rings achieved a stable level of contraction, 3 μM acetylcholine was added to the bath, in which the aorta rings were soaked, to assess endothelial integrity. Intimas were gently frayed with a cotton swab to disrupt the endothelium.
# [2] = tested on: rat thoracic aorta; test: Vasorelaxing effect on phenylephrine-induced contraction of rat thoracic aortic rings
# [3] = tested on: rat thoracic aorta; test: Relaxation of phenylephrine-contracted rat aortic rings in the presence of acetylcholine; settings: 0.3 μM phenylephrine, acetylcholine 3 μM present
# Procedure: Male Sprague-Dawley rats, weighing 250-350 g (Laboratory Animal Science Center of the National Yang-Ming University, Taipei, Taiwan), were used in this study. The rats were allowed to acclimate in environmentally controlled quarters (20-22° C. with 12:12 hr light-dark cycles). Thoracic aorta was excised carefully and fixed isometrically in organ chambers (15 mL) containing a 37° C. modified Krebs' solution (120 mM NaCl, 4.5 mM KCl, 2.5 mM CaCl2, 1 mM MgSO4, 27 mM NaHCO3, 1 mM KH2PO4, 10 mM glucose, pH 7.4) through which a mixture of 95% O2-5% CO2 was continuously supplied. The aortic rings of 3-4 mm were equilibrated under passive tension of 1.8 g for 60 min. After equilibration, the aortic rings were stabilized with a near maximal contraction induced by 0.3 μM phenylephrine. When the rings achieved a stable level of contraction, 3 μM acetylcholine was added to the bath, in which the aorta rings were soaked, to assess endothelial integrity. Intimas were gently frayed with a cotton swab to disrupt the endothelium.
# The relaxation effect of TAA on rat thoracic aorta in the presence of acetylcholine was also investigated. Vascular contraction in rat aortic rings was induced by 0.3 μM phenylephrine as described above. Acetylcholine (3 μM) was added to the bath, in which the aortic rings were soaked, to assess endothelial integrity. […]
Compound,phenylephrine-induced tension [1] [g],"maximum relaxation induced ([2]; TAA 100 μM, contraction induced by 10 μM phenylephrine, n=16) [%]","vasorelaxing effect in rat thoracic aorta ([2]; TAA 100 μM, phenylephrine precontracted aortic rings)",relaxation in phenylephrine-induced contraction ([2]; endothelium-intact preparations),"increase of relaxation ([3]; TAA 100 μM, n=16) [%]",relaxation levels ([3]; TAA 0.1-100 μM)
"O=[N+]([O-])OCC(CO[N+](=O)[O-])O[N+](=O)[O-] [GTN, glyceryltrinitrate]",1.3,,,,,
"O=C(O)/C=C(\CC(=O)O)C(=O)O [TAA, trans-aconitic acid]",,40,significant vasorelaxing effect,concentration-dependent relaxation,55,significant increase of relaxation levels
